Test systems include UACC-62 melanoma; EKVX NSCLC; RXF 393 renal; MDA-MB-435; OVCAR-4 ovarian; HT29 colon; SK-MEL-28 melanoma; MDA-MB-231 breast; M14 melanoma; PC-3 prostate.
What all share (test): growth of human tumour cells (NCI), 48 h

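Results reflect a 48-hour exposure of cells in 96-well plates to compound at five concentrations. GI50 is the concentration that inhibits growth by half. TGI: concentration producing complete growth inhibition.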

Take `CCOc1cc(C(C)(C)C)ccc1C1=N[C@@](C)(c2ccc(Cl)cc2)[C@@](C)(c2ccc(Cl)cc2)N1C(=O)N1CCN(CCCS(C)(=O)=O)CC1`: the GI50 in the assay on UACC-62 melanoma is 0.708 µM; in the assay with EKVX NSCLC, 4.3 µM; with RXF 393 renal, 3.39 µM; with MDA-MB-435 it was 5.21 µM; in the assay on OVCAR-4 ovarian it was 7.33 µM; with HT29 colon, 2.96 µM. Further, the GI50 with SK-MEL-28 melanoma is 6.1 µM; in the assay on MDA-MB-231 breast it was 3.41 µM; in the assay on M14 melanoma it was 3.6 µM. Also, the TGI turned out to be 6.41 µM in the assay on UACC-62 melanoma; 23.7 µM in the assay on EKVX NSCLC; 14.4 µM in the assay with RXF 393 renal; 19.4 µM in the assay on MDA-MB-435; 22.5 µM in the assay with OVCAR-4 ovarian; 9.28 µM with HT29 colon. Also, the TGI is 19.3 µM in the assay on SK-MEL-28 melanoma, 12.9 µM in the assay on MDA-MB-231 breast and over 100 µM with M14 melanoma.

For the molecule `COc1ccc(/C=C/C(=O)C(CC2CCC2)C(=O)/C=C/c2ccc(OC)c(OC)c2)cc1OC`, the GI50 in the assay on EKVX NSCLC was 2.73 µM; in the assay with RXF 393 renal, 1.85 µM; in the assay on MDA-MB-435, 1.49 µM; in the assay on OVCAR-4 ovarian, 2.34 µM; with HT29 colon, 1.78 µM; with SK-MEL-28 melanoma it was 2.16 µM. Further, the figures for the GI50 in the assay on MDA-MB-231 breast and in the assay on PC-3 prostate were 3.77 µM and 2.85 µM, respectively. For the same molecule, the TGI in the assay with EKVX NSCLC is 9.9 µM; with RXF 393 renal it was 3.47 µM; in the assay with MDA-MB-435 it was 3.15 µM; in the assay with OVCAR-4 ovarian, over 100 µM; in the assay with HT29 colon, 4.34 µM; in the assay on SK-MEL-28 melanoma it was 5.39 µM. The TGI with MDA-MB-231 breast and in the assay on PC-3 prostate was over 100 µM each time.

As to `O=C(/C=C\c1ccc(NCc2ccc(C(=O)O)cc2)cc1)CCl`, the GI50 in the assay with MDA-MB-435 was 15.8 µM; with OVCAR-4 ovarian, 13.9 µM; in the assay on HT29 colon it was 18.9 µM; with SK-MEL-28 melanoma it was 16.8 µM; with MDA-MB-231 breast, 12.7 µM; with M14 melanoma it was 15 µM. Besides, the GI50 in the assay with PC-3 prostate was 14.2 µM. Further, the TGI worked out at 31.9 µM with MDA-MB-435; 26.9 µM in the assay with OVCAR-4 ovarian; 37.8 µM in the assay with HT29 colon; 31.4 µM with SK-MEL-28 melanoma; 27 µM with MDA-MB-231 breast; 35.3 µM in the assay with M14 melanoma. Moreover, the TGI with PC-3 prostate worked out at 28.9 µM.

Turning to `CC(C)C[C@H](NC(=O)/C=C/Cn1ccc2ccccc2c1=O)B(O)O`, the GI50 with UACC-62 melanoma was 3.35 µM; in the assay on RXF 393 renal, 2.13 µM; with MDA-MB-435, 1.48 µM; in the assay with SK-MEL-28 melanoma it was 3.85 µM; with MDA-MB-231 breast, 2.85 µM; with M14 melanoma, 2.92 µM. The GI50 in the assay with PC-3 prostate is 17.4 µM. Moreover, the TGI worked out at 14.9 µM in the assay with UACC-62 melanoma; 5.15 µM with RXF 393 renal; 2.96 µM in the assay with MDA-MB-435; 36 µM with SK-MEL-28 melanoma; 8.14 µM with MDA-MB-231 breast; 10.1 µM with M14 melanoma. The molecule further came in with a TGI in the assay on PC-3 prostate of over 100 µM.

For `COc1cc2[nH]c(C(=O)c3cc(OC)c(OC)c(OC)c3)c(N)c2cc1C#CC1CC1`, the GI50 with UACC-62 melanoma was 20.1 µM; in the assay with MDA-MB-435, 0.332 µM; in the assay with OVCAR-4 ovarian, 4.01 µM; with HT29 colon it was 3.38 µM; with SK-MEL-28 melanoma, 7.52 µM; in the assay with MDA-MB-231 breast it was 3.9 µM. Moreover, the GI50 is 1.93 µM in the assay with M14 melanoma and 2.21 µM in the assay on PC-3 prostate. Further, the TGI in the assay on UACC-62 melanoma was over 100 µM; in the assay on MDA-MB-435 it was 1.17 µM; in the assay with OVCAR-4 ovarian, over 100 µM; with HT29 colon it was 28 µM; with SK-MEL-28 melanoma, over 100 µM; with MDA-MB-231 breast, over 100 µM. Further, the TGI with M14 melanoma and in the assay with PC-3 prostate was over 100 µM in each case.

As for `CC(C)(C[C@H]1CN(S(=O)(=O)c2cccc(C(F)(F)F)c2)c2cc(-c3cc(F)cc(OC(F)F)c3)ccc2O1)C(=O)O`, the GI50 in the assay with EKVX NSCLC was 5.25 µM; in the assay on RXF 393 renal, 8.43 µM; with MDA-MB-435, 2.44 µM; in the assay on OVCAR-4 ovarian, 13.2 µM; with HT29 colon, 4.01 µM; in the assay on SK-MEL-28 melanoma it was 10.9 µM. For the same molecule, the GI50 is 13.3 µM with MDA-MB-231 breast, 4.59 µM in the assay on M14 melanoma and 5.04 µM in the assay with PC-3 prostate. The TGI in the assay on EKVX NSCLC is 19.3 µM; in the assay with RXF 393 renal it was 24.2 µM; with MDA-MB-435 it was 7.58 µM; in the assay on OVCAR-4 ovarian, 41.7 µM; with HT29 colon, 15.6 µM; with SK-MEL-28 melanoma it was 24.4 µM. Moreover, the TGI with MDA-MB-231 breast was 34 µM; in the assay on M14 melanoma it was 17.5 µM; in the assay with PC-3 prostate, 18.9 µM.

With `Nc1ccn(C2CCC(CO)O2)c(=O)n1` (configuration not stated), the GI50 in the assay on UACC-62 melanoma, in the assay on EKVX NSCLC, in the assay with OVCAR-4 ovarian and with HT29 colon was over 1000 µM throughout. For the same molecule, the TGI in the assay on UACC-62 melanoma, in the assay on EKVX NSCLC, in the assay with MDA-MB-435, in the assay on OVCAR-4 ovarian, in the assay on HT29 colon and in the assay on MDA-MB-231 breast was over 1000 µM each time. For the same molecule, the TGI in the assay on M14 melanoma and in the assay on PC-3 prostate was over 1000 µM each time.

Regarding `Cc1[nH]c2ccccc2c(=O)c1CC=C(Cl)Cl`, the GI50 in the assay with UACC-62 melanoma is 34.5 µM; in the assay on MDA-MB-435, over 100 µM; in the assay on OVCAR-4 ovarian, 18.6 µM; in the assay with HT29 colon it was over 100 µM; with SK-MEL-28 melanoma it was 52.9 µM; with MDA-MB-231 breast, 31 µM. Also, the GI50 with M14 melanoma was over 100 µM; in the assay on PC-3 prostate, 99.9 µM. Further, the TGI in the assay on UACC-62 melanoma is over 100 µM; with MDA-MB-435 it was over 100 µM; with OVCAR-4 ovarian it was 79.9 µM; in the assay on HT29 colon, over 100 µM; with SK-MEL-28 melanoma it was over 100 µM; in the assay with MDA-MB-231 breast, over 100 µM. Moreover, the TGI in the assay with M14 melanoma and in the assay with PC-3 prostate was over 100 µM throughout.

As to `ClCc1cccc(Cn2cnc3nc(Cl)nc(Cl)c32)c1`, the GI50 is 1.02 µM in the assay with UACC-62 melanoma; 0.84 µM in the assay on EKVX NSCLC; 1.33 µM in the assay with RXF 393 renal; 1.65 µM with MDA-MB-435; 1.56 µM in the assay with OVCAR-4 ovarian; 0.503 µM with SK-MEL-28 melanoma. In addition, the GI50 in the assay on MDA-MB-231 breast is 0.234 µM; with M14 melanoma it was 0.854 µM; in the assay with PC-3 prostate, 0.644 µM. The TGI in the assay on UACC-62 melanoma was determined as 2.22 µM; in the assay on EKVX NSCLC, 2.2 µM; with RXF 393 renal it was 2.92 µM; in the assay on MDA-MB-435, 3.16 µM; with OVCAR-4 ovarian, 3.21 µM; with SK-MEL-28 melanoma, 1.13 µM. The results for the TGI in the assay with MDA-MB-231 breast, with M14 melanoma and in the assay with PC-3 prostate were 0.694 µM, 2.28 µM and 2.06 µM, respectively.

Source of the values: PubChem BioAssay (NCI).
